Reference: PubChem BioAssay (NCI)
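Tested at 5 concentrations; 48 h exposure; 96-well plates; endpoints linearly interpolated, else capped at highest concentration. GI50 = concentration required for 50% inhibition of growth. At the TGI there is no net growth.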

Experiments:
Assay in all cases: NCI anticancer screen, dose series, 48 h
[1] = system: RPMI-8226 leukemia
[2] = system: OVCAR-3 ovarian
[3] = system: SK-MEL-5 melanoma
[4] = system: NCI-H522 lung
[5] = system: NCI-H23 lung
[6] = system: UO-31 renal
[7] = system: UACC-257 melanoma
[8] = system: MALME-3M melanoma
[9] = system: SF-539 CNS
[10] = system: SN12C renal

| SMILES | TGI [1] | TGI [2] | TGI [3] | TGI [4] | TGI [5] | TGI [6] | TGI [7] | TGI [8] | TGI [9] | TGI [10] | GI50 [1] | GI50 [2] | GI50 [3] | GI50 [4] | GI50 [10] | GI50 [6] | GI50 [7] | GI50 [9] | GI50 [5] | GI50 [8] |
| --- | --- | --- | --- | --- | --- | --- | --- | --- | --- | --- | --- | --- | --- | --- | --- | --- | --- | --- | --- | --- |
| CC1CC2C3CC(F)C4=CC(=O)C=CC4(C)C3(F)C(O)CC2(C)C1(O)C(=O)COC(=O)C(C)(C)C (centres undefined) | > 100 µM | > 100 µM | > 100 µM | > 100 µM | > 100 µM | > 100 µM | > 100 µM | > 100 µM | > 100 µM |  |  |  |  |  |  |  |  |  |  |  |
| COC(=O)Cc1cc(OC)c(OC)cc1Br | > 100 µM | > 100 µM |  | > 100 µM | > 100 µM | > 100 µM | > 100 µM | > 100 µM |  | > 100 µM |  |  |  |  |  |  |  |  |  |  |
| O=S(=O)(Nc1ncccn1)c1ccc(N=Nc2ccc(O)c3ncccc23)cc1 | 25.2 µM | 59.4 µM | 20.7 µM | 25.7 µM |  | 12.4 µM | 45.2 µM |  | 21.9 µM | 53.4 µM | 3.94 µM | 6.25 µM | 6.85 µM | 5 µM | 6.43 µM | 1.94 µM | 14.8 µM | 4.67 µM |  |  |
| CN1C(=O)c2c(ccc3c2OCO3)C2C(O)Cc3cc4c(cc3C21)OCO4 (centres undefined) | > 100 µM | > 100 µM | > 100 µM | 9.28 µM | > 100 µM | > 100 µM |  |  | 16.8 µM | > 100 µM |  |  |  |  |  |  |  |  |  |  |
| CC1=CC2CC(C)=C(CC[C@]3(C)CC[C@H]([C@@H](C)C(=O)O)OO3)C(C)(C)C2CC1 (some centres undefined) |  | 2.99 µM | 2.52 µM | 0.383 µM | 2.35 µM | 2.23 µM | 3.03 µM | 2.02 µM | 2.68 µM | 1.9 µM |  |  |  |  |  |  |  |  |  |  |
| COc1cccc([C@H]2CC(=O)c3cc4c(cc3N2)OCO4)c1 | 1.01 µM | > 100 µM | 0.226 µM | 0.698 µM |  | > 100 µM | > 100 µM |  |  | > 100 µM | 0.0608 µM | 0.0415 µM | 0.0271 µM |  | 0.161 µM | 0.223 µM | 0.0414 µM | 0.084 µM |  |  |
| [O-]/[N+](=C\c1ccccc1)[C@H](COCc1ccccc1)c1ccccc1 | > 100 µM | > 100 µM | > 100 µM | > 100 µM | > 100 µM | > 100 µM | > 100 µM | > 100 µM | > 100 µM |  |  |  |  |  |  |  |  |  |  |  |
| CCSc1nnc2c(-c3ccccc3)n[nH]c2n1 | > 100 µM | > 100 µM | > 100 µM | > 100 µM | > 100 µM | > 100 µM | > 100 µM |  | > 100 µM |  |  |  |  |  |  |  |  |  |  |  |
| N=C(c1ccccc1)N(c1ccccc1)c1ccccc1 |  |  |  | > 100 µM | > 100 µM | > 100 µM | > 100 µM | 94.6 µM | > 100 µM | > 100 µM |  |  |  |  |  |  |  |  |  |  |
| CC1=CCC[C@@]2(C)C(CC[C@@H]2C(C)/C=C/C(C)C)c2ccc(cc2C(=O)O)C[C@@H](O)CC1 (some centres undefined) | 19.7 µM | 26.8 µM | 12.5 µM | 29.8 µM |  | 29.2 µM | 30.5 µM | 37.7 µM | 21 µM | 30.4 µM |  |  |  |  |  |  |  |  |  |  |
| CCC1(C)NN=c2s/c(=C/c3ccc(OC)cc3)c(=O)n2N1 (centres undefined) |  | > 100 µM | > 100 µM | > 100 µM | > 100 µM | > 100 µM |  | > 100 µM | > 100 µM | > 100 µM |  |  |  |  |  |  |  |  |  |  |
| NS(=O)(=O)c1ccc(NC(=O)c2ccc(NC3=C(Cl)C(=O)N(Cc4ccccc4)C3=O)cc2)cc1 |  | 7.88 µM | 24.1 µM | 4.78 µM | 14.3 µM | > 100 µM | 56.7 µM | > 100 µM | 22 µM |  |  | 1.89 µM | 10.9 µM | 1.91 µM |  | 79.3 µM | 18.2 µM | 4.59 µM | 3.42 µM | 49.4 µM |
| CC1=C([Se]CC(OC(=O)[C@@H](CSSC(C)(C)C)NC(=O)OC(C)(C)C)C(=O)NC(C)(C)C)C(=O)c2ccccc2C1=O (some centres undefined) |  | 3.3 µM | 2.94 µM | 2.99 µM | 4.61 µM |  |  | 2.41 µM | 2.74 µM | 2.74 µM |  | 1.89 µM | 1.59 µM | 1.55 µM | 1.37 µM |  |  | 1.43 µM | 1.82 µM | 1.18 µM |
| COc1cc(C(=O)OCCCCCCCCCCC[P+](c2ccccc2)(c2ccccc2)c2ccccc2)ccc1O | 0.942 µM |  |  |  |  | 3.17 µM | 1.54 µM |  |  |  | 0.2 µM |  |  |  |  | 1.69 µM | 0.451 µM |  |  |  |
| CCC(C)CN1C(=O)NC(C)(Cc2ccccc2)C1=O (centres undefined) |  |  | > 100 µM | > 100 µM | > 100 µM | > 100 µM | > 100 µM | > 100 µM | > 100 µM | > 100 µM |  |  |  |  |  |  |  |  |  |  |
| O=C1c2ccccc2C2(O)Nc3cc(O)ccc3C12O (centres undefined) | > 100 µM | > 100 µM | > 100 µM | > 100 µM | > 100 µM |  |  | > 100 µM | > 100 µM | > 100 µM |  |  |  |  |  |  |  |  |  |  |
| C[n+]1c(/C=C\C=C\N2CCCCC2)sc2ccccc21 | 1.09 µM | 5.81 µM | 1.5 µM |  | 18.3 µM | > 71.3 µM | 2.18 µM | 2.18 µM | 15 µM | 21.2 µM | 0.0691 µM | 0.243 µM | 0.276 µM |  | 0.716 µM | 13.5 µM | 0.278 µM | 1.03 µM | 0.367 µM | 0.311 µM |
| CCOc1ccc(NC(=O)CC2SC(=Nc3ccc(Cl)cc3)NC2=O)cc1 (centres undefined) | > 100 µM | > 100 µM | > 100 µM |  | > 100 µM | > 100 µM | > 100 µM | > 100 µM | > 100 µM | > 100 µM |  |  |  |  |  |  |  |  |  |  |
| C=CCC1OC(C)(C)Oc2ccc(OCOCCOC)cc21 (centres undefined) |  | > 100 µM | > 100 µM |  | > 100 µM | > 100 µM | > 100 µM | > 100 µM | > 100 µM | > 100 µM |  |  |  |  |  |  |  |  |  |  |
| O=[As](O)(O)c1ccc(NCc2ccccc2)cc1 | > 100 µM | > 100 µM | > 100 µM | > 100 µM | > 100 µM | > 100 µM | > 100 µM | > 100 µM |  | > 100 µM |  |  |  |  |  |  |  |  |  |  |
| Cc1c2cc[nH]c(=O)c2c(C)c2c1[nH]c1cc(OCCN3CCN(C)CC3)ccc12 | 5 µM | 7.7 µM | 2.44 µM | 2.76 µM | 3.67 µM | 3.09 µM | 7.72 µM |  | 2.77 µM | 3.31 µM | 1.63 µM | 1.24 µM | 1.18 µM | 0.718 µM | 0.389 µM | 1.06 µM | 2.51 µM | 1.31 µM | 0.833 µM |  |
